Experimental data reported in patent US20110082087A1, “COMPOUNDS FOR TREATING PAIN” (Edificio ICAT, priority 2008, published 2011).

Experiments:
[1] = Differential quenching, depth of location in the membrane; assay type: physicochemical; details: phenolic ring; differential quenching with 5-NS and 16-NS
From the text: Differential quenching experiments were used to estimate the depth of location of the phenolic ring of the peptides, based on a Brownian dynamics simulation (Fernandes M. X., Garcia de la Torre J., Castanho M. A. 2002. Joint determination by Brownian dynamics and fluorescence quenching of the in-depth location profile of biomolecules in membranes. Anal. Biochem. 307: 1-12.) This methodology allows to determine where the molecules are preferably inserted along the lipid bilayer. The peptides with the amide group show a greater depth of insertion, 4 Å—KTP-NH2 and 3 Å—Ibu-KTP-NH2, from the lipid/water interface. This is in agreement with KTP-NH2 having a higher affinity for lipids, as desired.

[2] = Acrylamide quenching studies (aggregation in aqueous medium); assay type: physicochemical; details: acrylamide quenching of tyrosine fluorescence
Description: The aggregation of molecules in aqueous medium, as a result of poor solubility, for example, is a critical parameter in pharmacology. […] For this purpose, acrylamide quenching studies were performed (Lakowicz J. R 1999. Principles of Fluorescence spectroscopy, Second Edition ed., Kluwer Academic/Plenum Publishers, New York; Coutinho A and Prieto M. 1993. Ribonuclease T1 and alcohol dehydrogenase fluorescence quenching by acrylamide: A laboratory experiment for undergraduate students J. Chem. Education, 70: 425-428). Acrylamide is an aqueous quencher of tyrosine fluorescence. When fluorescent peptides aggregate, the phenolic groups tend to cluster and remain inaccessible to hydrophilic molecules. Conversely, when no aggregation occurs, all tyrosine residues are exposed to the solvent and, therefore, accessible to the contact and quenching by acrilamide. […] The fluorescence spectra were not concentration-dependent (not shown) and there was a linear dependence of fluorescence intensity on concentration (not shown).

rats (Wister, male) [3] = assay: Tail Flick test; assay type: in vivo, rat
Description: (§1) In vivo behavioural anti-nociception tests were carried out in rats (Wister, male). Unless otherwise stated, compounds were administered by intra-peritoneal (i.p.) injection. For most assays, the Tail Flick and the Hot Plate tests were used.
The tail-flick test (D'Amour F. E., Smith D. L. 1941. A method for determining the loss of pain sensation. J Pharmacol Exp Ther 1941; 72:74-79) is a standard investigative tool for pain and analgesia assessment in rodents. It is based on a spinal reflex response of the tail to radiant heat. Pain sensitivity in rats was measured as they responded to the application of radiant heat to a small area of their tails. The rat's tail was placed over a window located on a platform and subjected to irradiation by an intense light beam (10 W). When the rat feels discomfort, it flicks its tail which automatically stops the timer. The reaction time from activation of the light beam to the tail flick is automatically presented on a digital display. A cut-off time of 24 s was applied. Animal reaction time is a measurement of animal resistance to pain and is used to measure efficacy of analgesics.

rats (Wister, male) [4] = assay: Increasing-temperature Hot Plate test; assay type: in vivo, rat
Description: as §1
The hot-plate test (Eddy N. B and Leimbach D. 1953. Synthetic analgesics II. Dithienylbutenyl and dithienylbutylamines J. Pharmacol. Exp. Ther. 45: 339) evaluates a supraspinally integrated response in the form of thermal pain reflexes due to footpad contact with a heated surface. During the experiments, the animal is confined in a removable clear acrylic compartment where the latency time to the first hind paw or/and jumping responses are measured. […] The response is the licking of the hindpaw, and the corresponding plate temperature represents the recorded nociceptive end-point. The advantage of Increasing-Temperature Hot-Plate test over the standard constant-temperature hot-plate test is the higher sensitivity and the lack of influences of pre-exposure to the hot-plate before testing. Animal reaction temperature is a measurement of animal resistance to pain and is used to measure efficacy of analgesics.

rats [5] = assay: Comparison with morphine, behavioural nociception tests and behaviour observation; assay type: in vivo, rat; details: i.p.
Description: as §1
The analgesic potential of KTP-NH2 was also verified by comparison with well-known, widely-used analgesic molecules: ibuprofen and morphine.
From FIG. 12 it is possible to observe that the efficacy of 3 mg/100 g of KTP-NH2 is similar to that observed with 0.5 mg/100 g dose of morphine.

rats [6] = assay: Rota-rod test (motor ability); assay type: in vivo, rat; details: 3.23 mg/100 g of body mass
Description: To evaluate the motor ability of animals after being injected with the drug (3.23 mg/100 g of body mass), the Rota-rod test was used. Briefly, the animal is placed on a wheel and run in balanced position; if balance is lost, the animal falls.

rats (Wister, male) [7] = assay: Antioxidant capacity in plasma (ACW, ACL); assay type: in vivo, rat; details: i.p. once a day 3.23 mg/100 g for seven days
Description: The toxicological studies were carried out with rats (Wister, male) injected i.p. once a day with 3.23 mg/100 g body mass during seven days.
Metabolization of KTP-NH2 in the organism might lead to an increase in its metabolite products and to the subsequent production of reactive oxygen species (ROS). As increased ROS levels are potentially harmful, KTP-NH2 potential to induce changes in antioxidant capacities in the plasma of animals was explored. Total antioxidant capacity of lipid-soluble (ACL) and water-soluble (ACW) constituents were determined.

Plasma stability = assay type: in vitro ADME, human; details: after 1 h incubation
From the text: Drugs are exposed in plasma to enzymatic processes (proteinases, esterases), they can undergo intramolecular rearrangement or bind irreversibly (covalently) to proteins. Compounds which are not stable in plasma have inherent liability as drug candidates, as they are less capable to reach a sufficient concentration at their site of pharmacological activity.

[8] = Plasma serum stability of analogues; assay type: in vitro ADME; details: Human Serum; test concentration 400 uM; 1-hour incubation; read-out: Mean Parent Remaining (%)
Description: These analogues were tested for plasma serum stability, in comparison with KTP-NH2.

## N=C(N)NCCC[C@H](NC(=O)[C@@H](N)Cc1ccc(O)cc1)C(N)=O [KTP-NH2, L-Tyr-L-Arg-NH2]
[1]
  depth of insertion from the lipid/water interface: 4 Å
[2]
  aggregation / solubility in aqueous medium: favourable solubility properties
Rats (Wister, male) [3]; Tail Flick, 3.23 mg/100 g once a day for seven days vs single injection
  response after chronic administration: very similar profile to the control
Rats (Wister, male) [3]; Tail Flick, i.p.
  analgesic effect compared with ibuprofen: more durable effect
Rats (Wister, male) [3]; Tail Flick, i.p., rat
  duration of anti-nociceptive response: 45 min
  smallest dose tested with statistical significance: 2.45 mg for 100 g of body mass
Rats (Wister, male) [3]; Tail Flick, oral, rat
  analgesic efficacy after oral administration: slight delay of the onset of effect
Rats (Wister, male) [3]; i.p., rat
  effect on tail flick latency: clear anti-nociceptive response
Rats (Wister, male) [3]; tail-flick, naloxone 0.5 mg/100 g 10 min before, KTP-NH2 3 mg/100 g
  analgesia after pretreatment with naloxone: completely antagonized
Rats (Wister, male) [4]; Hot Plate, i.p.
  analgesic effect compared with ibuprofen: more pronounced effect
Rats (Wister, male) [4]; Hot Plate, i.p., rat
  duration of anti-nociceptive response: 30 min
  smallest dose tested with statistical significance: 1.67 mg for 100 g of body mass
Rats (Wister, male) [4]; Hot Plate, oral, rat
  analgesic efficacy after oral administration: slight delay of the onset of effect
Rats (Wister, male) [4]; i.p., rat
  effect in hot plate test: clear anti-nociceptive response
Rats [5]; 3 mg/100 g KTP-NH2 vs 0.5 mg/100 g morphine
  analgesic efficacy compared with morphine: similar
Rats [5]; rats
  alterations in behavior (secondary effects): no such secondary effects were observed
Rats [6]
  motor ability, loss of balance: No loss of balance/equilibrium
Rats (Wister, male) [7]
  basal antioxidant capacity in plasma (ACL, ACW): does not induce significant modifications
Plasma stability
  stability in human plasma: 14-21%
[8]
  remaining at 1 h, 400 uM: 14%
